Key:
Experiment in all cases: relative viability vs DMSO control (72 h) (fraction); higher = more viable cells
G401 = tested on: G401
How it was run: (§1)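 Sarcoma cell lines were seeded in 384-well plates at densities chosen for 80–90% confluence, then 24 h later given 2.5 µl of serially diluted compound drawn from source plates spanning 10 mM to 0.0002 mM. They were held 72 h at 37 °C, 5% CO2, with 0.1% DMSO vehicle and a 5 µM positive control included. Relative viability was read with ATPLite as percent growth and averaged over up to triplicate wells. Rescaling placed full at 1 and none at 0.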

KHOS-240S = tested on: KHOS-240S
How it was run: as §1

SW1353 = tested on: SW1353
How it was run: as §1

SYO-1 = tested on: SYO-1
How it was run: as §1

SW982 = tested on: SW982
How it was run: as §1

HT1080 = tested on: HT1080
How it was run: as §1

KHOS-NP = tested on: KHOS-NP
How it was run: as §1

SW872 = tested on: SW872
How it was run: as §1

SW684 = tested on: SW684
How it was run: as §1

RD-ES = tested on: RD-ES
How it was run: as §1

A204 = tested on: A204
How it was run: as §1

SK-ES-1 = tested on: SK-ES-1
How it was run: as §1

Cc1cc2c(F)c(Oc3ncnn4cc(OC[C@@H](C)OC(=O)[C@H](C)N)c(C)c34)ccc2[nH]1 [Brivanib_alaninate]
Conditions	relative viability
A204, 0.00017 µM	1.05
A204, 0.00051 µM	1.05
A204, 0.00152 µM	1.07
A204, 0.00457 µM	1.11
A204, 0.01372 µM	1.08
A204, 0.04115 µM	1.04
A204, 0.1235 µM	1.03
A204, 0.3704 µM	1.05
A204, 1.111 µM	0.999
A204, 3.333 µM	0.958
A204, 10 µM	0.567
G401, 0.00017 µM	0.968
G401, 0.00051 µM	0.967
G401, 0.00152 µM	1
G401, 0.00457 µM	1.01
G401, 0.01372 µM	0.974
G401, 0.04115 µM	0.995
G401, 0.1235 µM	0.982
G401, 0.3704 µM	0.976
G401, 1.111 µM	1
G401, 3.333 µM	0.953
G401, 10 µM	0.8674
HT1080, 0.00017 µM	1.05
HT1080, 0.00051 µM	1.04
HT1080, 0.00152 µM	1.06
HT1080, 0.00457 µM	1.03
HT1080, 0.01372 µM	1.04
HT1080, 0.04115 µM	1.03
HT1080, 0.1235 µM	1.04
HT1080, 0.3704 µM	1.054
HT1080, 1.111 µM	1.047
HT1080, 3.333 µM	0.99
HT1080, 10 µM	0.978
KHOS-240S, 0.00017 µM	1.016
KHOS-240S, 0.00051 µM	1.04
KHOS-240S, 0.00152 µM	1.03
KHOS-240S, 0.00457 µM	1.04
KHOS-240S, 0.01372 µM	1.052
KHOS-240S, 0.04115 µM	1.03
KHOS-240S, 0.1235 µM	1.03
KHOS-240S, 0.3704 µM	1.04
KHOS-240S, 1.111 µM	1.007
KHOS-240S, 3.333 µM	0.93
KHOS-240S, 10 µM	0.738
KHOS-NP, 0.00017 µM	1.04
KHOS-NP, 0.00051 µM	1.05
KHOS-NP, 0.00152 µM	1.05
KHOS-NP, 0.00457 µM	1.06
KHOS-NP, 0.01372 µM	1.059
KHOS-NP, 0.04115 µM	1.07
KHOS-NP, 0.1235 µM	1.03
KHOS-NP, 0.3704 µM	1.03
KHOS-NP, 1.111 µM	1.02
KHOS-NP, 3.333 µM	0.917
KHOS-NP, 10 µM	0.6654
RD-ES, 0.00017 µM	0.953
RD-ES, 0.00051 µM	0.9804
RD-ES, 0.00152 µM	0.983
RD-ES, 0.00457 µM	0.983
RD-ES, 0.01372 µM	0.996
RD-ES, 0.04115 µM	0.989
RD-ES, 0.1235 µM	0.962
RD-ES, 0.3704 µM	1
RD-ES, 1.111 µM	0.987
RD-ES, 3.333 µM	0.9601
RD-ES, 10 µM	0.926
SK-ES-1, 0.00017 µM	1.07
SK-ES-1, 0.00051 µM	1.07
SK-ES-1, 0.00152 µM	1.06
SK-ES-1, 0.00457 µM	1.05
SK-ES-1, 0.01372 µM	1.05
SK-ES-1, 0.04115 µM	1.03
SK-ES-1, 0.1235 µM	1.06
SK-ES-1, 0.3704 µM	1.05
SK-ES-1, 1.111 µM	1.044
SK-ES-1, 3.333 µM	0.991
SK-ES-1, 10 µM	0.921
SW684, 0.00017 µM	1.15
SW684, 0.00051 µM	1.15
SW684, 0.00152 µM	1.17
SW684, 0.00457 µM	1.14
SW684, 0.01372 µM	1.08
SW684, 0.04115 µM	1.07
SW684, 0.1235 µM	1.09
SW684, 0.3704 µM	1.17
SW684, 1.111 µM	1.141
SW684, 3.333 µM	1.13
SW684, 10 µM	1.19
SW872, 0.00017 µM	0.98
SW872, 0.00051 µM	0.967
SW872, 0.00152 µM	0.991
SW872, 0.00457 µM	0.988
SW872, 0.01372 µM	0.968
SW872, 0.04115 µM	0.973
SW872, 0.1235 µM	0.986
SW872, 0.3704 µM	1.02
SW872, 1.111 µM	1.04
SW872, 3.333 µM	1.05
SW872, 10 µM	1.03
SW982, 0.00017 µM	1.05
SW982, 0.00051 µM	1.03
SW982, 0.00152 µM	1.04
SW982, 0.00457 µM	1.04
SW982, 0.01372 µM	1.05
SW982, 0.04115 µM	1.05
SW982, 0.1235 µM	1.06
SW982, 0.3704 µM	1.04
SW982, 1.111 µM	1.09
SW982, 3.333 µM	1.08
SW982, 10 µM	1.12
SW1353, 0.00017 µM	0.949
SW1353, 0.00051 µM	0.952
SW1353, 0.00152 µM	0.999
SW1353, 0.00457 µM	0.928
SW1353, 0.01372 µM	0.97
SW1353, 0.04115 µM	0.963
SW1353, 0.1235 µM	0.94
SW1353, 0.3704 µM	0.958
SW1353, 1.111 µM	0.97
SW1353, 3.333 µM	0.984
SW1353, 10 µM	0.977
SYO-1, 0.00017 µM	0.934
SYO-1, 0.00051 µM	0.937
SYO-1, 0.00152 µM	0.94
SYO-1, 0.00457 µM	0.927
SYO-1, 0.01372 µM	0.9194
SYO-1, 0.04115 µM	0.914
SYO-1, 0.1235 µM	0.906
SYO-1, 0.3704 µM	0.903
SYO-1, 1.111 µM	0.846
SYO-1, 3.333 µM	0.673
SYO-1, 10 µM	0.586

C=CC(=O)N1CCC(CNc2ncnc(N)c2-c2ccc(Oc3ccccc3)cc2)CC1 [Evobrutinib]
Conditions	relative viability
A204, 0.00017 µM	1.1
A204, 0.00051 µM	1.16
A204, 0.00152 µM	1.16
A204, 0.00457 µM	1.11
A204, 0.01372 µM	1.02
A204, 0.04115 µM	1.05
A204, 0.1235 µM	1.07
A204, 0.3704 µM	1.04
A204, 1.111 µM	1.07
A204, 3.333 µM	1.02
A204, 10 µM	0.871
G401, 0.00017 µM	1.05
G401, 0.00051 µM	1.01
G401, 0.00152 µM	1.01
G401, 0.00457 µM	1.02
G401, 0.01372 µM	1.03
G401, 0.04115 µM	1.03
G401, 0.1235 µM	1
G401, 0.3704 µM	1.02
G401, 1.111 µM	0.982
G401, 3.333 µM	1
G401, 10 µM	0.894
HT1080, 0.00017 µM	1.11
HT1080, 0.00051 µM	1.1
HT1080, 0.00152 µM	1.1
HT1080, 0.00457 µM	1.14
HT1080, 0.01372 µM	1.082
HT1080, 0.04115 µM	1.08
HT1080, 0.1235 µM	1.091
HT1080, 0.3704 µM	1.078
HT1080, 1.111 µM	1.07
HT1080, 3.333 µM	1.1
HT1080, 10 µM	1.08
KHOS-240S, 0.00017 µM	1.09
KHOS-240S, 0.00051 µM	1.06
KHOS-240S, 0.00152 µM	1.08
KHOS-240S, 0.00457 µM	1.12
KHOS-240S, 0.01372 µM	1.1
KHOS-240S, 0.04115 µM	1.09
KHOS-240S, 0.1235 µM	1.08
KHOS-240S, 0.3704 µM	1.07
KHOS-240S, 1.111 µM	1.07
KHOS-240S, 3.333 µM	1.04
KHOS-240S, 10 µM	1.03
KHOS-NP, 0.00017 µM	1.11
KHOS-NP, 0.00051 µM	1.13
KHOS-NP, 0.00152 µM	1.13
KHOS-NP, 0.00457 µM	1.13
KHOS-NP, 0.01372 µM	1.12
KHOS-NP, 0.04115 µM	1.128
KHOS-NP, 0.1235 µM	1.12
KHOS-NP, 0.3704 µM	1.12
KHOS-NP, 1.111 µM	1.12
KHOS-NP, 3.333 µM	1.12
KHOS-NP, 10 µM	1.12
RD-ES, 0.00017 µM	0.985
RD-ES, 0.00051 µM	1
RD-ES, 0.00152 µM	0.99
RD-ES, 0.00457 µM	1
RD-ES, 0.01372 µM	1
RD-ES, 0.04115 µM	1.03
RD-ES, 0.1235 µM	1.01
RD-ES, 0.3704 µM	0.981
RD-ES, 1.111 µM	0.9603
RD-ES, 3.333 µM	0.976
RD-ES, 10 µM	0.946
SK-ES-1, 0.00017 µM	1.12
SK-ES-1, 0.00051 µM	1.14
SK-ES-1, 0.00152 µM	1.1
SK-ES-1, 0.00457 µM	1.04
SK-ES-1, 0.01372 µM	1.04
SK-ES-1, 0.04115 µM	1.09
SK-ES-1, 0.1235 µM	1.05
SK-ES-1, 0.3704 µM	1.06
SK-ES-1, 1.111 µM	1.03
SK-ES-1, 3.333 µM	1.01
SK-ES-1, 10 µM	1.02
SW684, 0.00017 µM	1.15
SW684, 0.00051 µM	1.19
SW684, 0.00152 µM	1.2
SW684, 0.00457 µM	1.22
SW684, 0.01372 µM	1.2
SW684, 0.04115 µM	1.16
SW684, 0.1235 µM	1.22
SW684, 0.3704 µM	1.18
SW684, 1.111 µM	1.19
SW684, 3.333 µM	1.19
SW684, 10 µM	1.174
SW872, 0.00017 µM	1.05
SW872, 0.00051 µM	1.056
SW872, 0.00152 µM	1.04
SW872, 0.00457 µM	1.04
SW872, 0.01372 µM	1.03
SW872, 0.04115 µM	1.03
SW872, 0.1235 µM	1.07
SW872, 0.3704 µM	1.04
SW872, 1.111 µM	1.02
SW872, 3.333 µM	1.03
SW872, 10 µM	1.01
SW982, 0.00017 µM	1.04
SW982, 0.00051 µM	1.09
SW982, 0.00152 µM	1.11
SW982, 0.00457 µM	1.07
SW982, 0.01372 µM	1.08
SW982, 0.04115 µM	1.068
SW982, 0.1235 µM	1.086
SW982, 0.3704 µM	1.07
SW982, 1.111 µM	1.06
SW982, 3.333 µM	1.07
SW982, 10 µM	1.12
SW1353, 0.00017 µM	1.07
SW1353, 0.00051 µM	1.07
SW1353, 0.00152 µM	1.09
SW1353, 0.00457 µM	1.06
SW1353, 0.01372 µM	1.02
SW1353, 0.04115 µM	1.007
SW1353, 0.1235 µM	1.048
SW1353, 0.3704 µM	1.02
SW1353, 1.111 µM	0.974
SW1353, 3.333 µM	0.949
SW1353, 10 µM	0.853
SYO-1, 0.00017 µM	1.018
SYO-1, 0.00051 µM	1.02
SYO-1, 0.00152 µM	1.03
SYO-1, 0.00457 µM	1.02
SYO-1, 0.01372 µM	1.03
SYO-1, 0.04115 µM	0.998
SYO-1, 0.1235 µM	0.992
SYO-1, 0.3704 µM	0.994
SYO-1, 1.111 µM	0.965
SYO-1, 3.333 µM	0.953
SYO-1, 10 µM	0.894
